Experiments:
Experiment in all cases: relative viability (nuclei count vs DMSO), 5 days (fraction); higher = more cells survive
[1] = compound: CC1=CC=C(C=C1)C(=O)CN2C3=C(CCCC3)SC2=N [Pifithrin_alpha] + O=C(CCCCCCC(=O)Nc1ccccc1)NO [Vorinostat] (partner 1 µM)
Procedure, shortened: (§1)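 Lung cancer cell lines in 1536-well plates got either a single drug or a fixed anchor-drug dose together with five library-drug doses (not always all listed) in √10 steps, by pin tool, on the day after seeding. Nuclei were counted after 5 days, and relative viability is the treated-to-vehicle ratio of nuclei counts. Values are medians of duplicate plates.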

Bemcentinib + Phenformin = compound: Nc1nc(Nc2ccc3c(c2)CC[C@@H](N2CCCC2)CC3)nn1-c1cc2c(nn1)-c1ccccc1CCC2 [Bemcentinib] + N=C(N)NC(=N)NCCc1ccccc1 [Phenformin] (partner 250 µM)
Procedure, shortened: as §1

Axitinib + Linsitinib = compound: CNC(=O)c1ccccc1Sc1ccc2c(/C=C/c3ccccn3)n[nH]c2c1 [Axitinib] + C[C@]1(O)C[C@@H](c2nc(-c3ccc4ccc(-c5ccccc5)nc4c3)c3c(N)nccn32)C1 [Linsitinib] (partner 1 µM)
Procedure, shortened: as §1

[2] = compound: CC1=CC=C(C=C1)C(=O)CN2C3=C(CCCC3)SC2=N [Pifithrin_alpha] + Cc1cc(Nc2cc(N3CCN(C)CC3)nc(Sc3ccc(NC(=O)C4CC4)cc3)n2)n[nH]1 [Tozasertib] (partner 0.1 µM)
Procedure, shortened: as §1

| Cell Line | relative viability ([1]; first compound 1 µM) | relative viability ([1]; first compound 3.162 µM) | relative viability ([1]; first compound 10 µM) | relative viability ([1]; first compound 31.62 µM) | relative viability ([1]; first compound 100 µM) | relative viability (Bemcentinib + Phenformin; first compound 0.04 µM) | relative viability (Bemcentinib + Phenformin; first compound 0.1265 µM) | relative viability (Bemcentinib + Phenformin; first compound 0.4 µM) | relative viability (Bemcentinib + Phenformin; first compound 1.265 µM) | relative viability (Bemcentinib + Phenformin; first compound 4 µM) | relative viability (Axitinib + Linsitinib; first compound 0.005 µM) | relative viability (Axitinib + Linsitinib; first compound 0.01581 µM) | relative viability (Axitinib + Linsitinib; first compound 0.05 µM) | relative viability (Axitinib + Linsitinib; first compound 0.1581 µM) | relative viability (Axitinib + Linsitinib; first compound 0.5 µM) | relative viability ([2]; first compound 1 µM) | relative viability ([2]; first compound 3.162 µM) | relative viability ([2]; first compound 10 µM) | relative viability ([2]; first compound 31.62 µM) | relative viability ([2]; first compound 100 µM) |
| --- | --- | --- | --- | --- | --- | --- | --- | --- | --- | --- | --- | --- | --- | --- | --- | --- | --- | --- | --- | --- |
| NCI-H1734 | 0.715 | 0.776 | 0.773 | 0.537 | 0.75 | 0.406 | 0.384 | 0.42 | 0.434 | 0.372 | 1.05 | 0.829 | 0.977 | 0.903 | 1.04 | 0.28 | 0.259 | 0.238 | 0.262 | 0.245 |
| NCI-H1755 | 0.773 | 0.853 | 0.694 | 0.599 | 0.724 | 0.652 | 0.62 | 0.648 | 0.59 | 0.622 | 1.04 | 0.963 | 0.99 | 1.02 | 1.03 | 0.67 | 0.449 | 0.492 | 0.424 | 0.54 |
| NCI-H1793 | 0.674 | 0.571 | 0.655 | 0.753 | 0.46 | 0.395 | 0.463 | 0.384 |  | 0.336 | 0.85 | 0.836 | 0.935 | 1.01 | 0.881 |  | 0.272 | 0.277 | 0.276 | 0.218 |
| NCI-H1915 | 0.456 | 0.527 | 0.418 |  | 0.543 | 0.376 | 0.375 | 0.372 | 0.383 | 0.353 | 1.03 | 1.12 | 1.09 | 1.13 | 1.13 | 0.454 | 0.465 |  |  | 0.399 |
| NCI-H1944 | 0.503 | 0.572 | 0.505 | 0.351 | 0.395 | 0.202 | 0.211 | 0.219 | 0.217 | 0.206 | 1.24 | 1.16 | 1.16 | 1.16 | 1.24 | 0.236 | 0.225 | 0.23 | 0.191 | 0.19 |
| NCI-H1975 | 0.626 | 0.708 | 0.579 | 0.54 | 0.529 | 0.405 | 0.428 | 0.428 | 0.437 | 0.417 | 1.17 | 1.1 | 1.09 | 0.988 | 1.18 | 0.592 | 0.431 | 0.181 | 0.141 | 0.203 |
| NCI-H1993 | 0.771 | 0.607 | 0.754 | 0.627 | 0.793 | 0.465 | 0.501 | 0.528 | 0.505 | 0.487 | 0.725 | 0.745 | 0.773 | 0.79 | 0.826 | 0.586 | 0.636 | 0.573 | 0.529 | 0.559 |
| NCI-H2009 | 0.697 | 0.715 | 0.601 | 0.399 | 0.57 | 0.497 | 0.544 | 0.489 | 0.466 | 0.418 | 1.23 | 1.18 | 1.21 | 1.28 | 1.36 | 0.822 | 0.755 | 0.693 | 0.413 | 0.495 |

Reference: the supplement of paper PMC10307832
